Data as given in US12180139B2, “Method for preparing aminoalkanoic acid derivative containing biphenyl group” (AMTIXBIO CO., LTD., priority 2019, dated 2024).

Tests used:
A. fumigatus [1] = conditions: visual reading; expressed as a range value
Experimental: (§3) An in vitro antifungal susceptibility test was performed in accordance with the US Clinical and Laboratory Standards Institute (CLSI) guidelines to measure the degree of antifungal activity of the compounds synthesized in the Preparation Examples against opportunistic pathogenic fungi. […] The MIC value (μg/ ? ) is expressed as a range value. Specifically, Candida species and Cryptococcus neoformans were incubated in a Sabouraud dextrose agar (SDA) (Sigma-Aldrich) solid medium for 24 and 48 hours, respectively to obtain single colonies. The obtained single colonies were suspended in 0.85% physiological saline to prepare fungal cell suspension (1 to 5×10^6 cells/ ? ). Fungal cells 2000-fold diluted in RPMI1640 broth (Sigma-Aldrich) were seeded on 96-well plates (5×10^2 to 2.5×10^3 cells/ ? , 195 ? /well). Serial two-fold dilutions (128, 64, 32, 16, 8, 4, 2, 1, and 0.5 μg/ ? ) of compounds were prepared by diluting the compounds synthesized according to the above preparation examples. Then, 5 ? from each dilution was added to the well of the 96-well plate containing fungal cell suspension to give a final suspension of 200 ? per well. […] As a positive control, amphotericin B (AMB), which is highly toxic to the human body but is known as a representative antifungal agent, was used.

C. glabrata [2] = conditions: RPMI1640 broth, 35° C., 48 hours, visual reading; expressed as a range value
Experimental: as §3

MRSA = assay: Antibacterial MIC test (CLSI); format: cell-based, Methicillin-resistant Staphylococcus aureus; conditions: MHB liquid medium, 37° C., 24 hours
Experimental: (§1) The MIC test was conducted in accordance CLSI guidelines. […] As a positive control, Nofloxacin and Vancomycin were used.

S. epidermidis (+) = conditions: MHB liquid medium, 37° C., 24 hours
S. aureus (+) = conditions: MHB liquid medium, 37° C., 24 hours
C. neoformans [3] = conditions: RPMI1640 broth, 35° C., 72 hours, visual reading; expressed as a range value
Experimental: as §3

E. coli (−) = assay: Antibacterial MIC test (CLSI); format: cell-based; conditions: MHB liquid medium, 37° C., 24 hours
Experimental: as §1

B. subtilis (+) = assay: Antibacterial MIC test (CLSI); format: cell-based; conditions: MHB liquid medium, 37° C., 24 hours
Experimental: as §1

S. aureus enterica (−) = assay: Antibacterial MIC test (CLSI); format: cell-based; conditions: MHB liquid medium, 37° C., 24 hours
Experimental: as §1

B. cereus (+) = assay: Antibacterial MIC test (CLSI); format: cell-based; conditions: MHB liquid medium, 37° C., 24 hours
Experimental: as §1

M. luteus (+) = assay: Antibacterial MIC test (CLSI); format: cell-based; conditions: MHB liquid medium, 37° C., 24 hours
Experimental: as §1

L. monocytogenes (+) = assay: Antibacterial MIC test (CLSI); format: cell-based; conditions: MHB liquid medium, 37° C., 24 hours
Experimental: as §1

B. coagulans (+) = assay: Antibacterial MIC test (CLSI); format: cell-based; conditions: MHB liquid medium, 37° C., 24 hours
Experimental: as §1

P. acnes (+) = assay: Antibacterial MIC test (CLSI); format: cell-based; conditions: MHB liquid medium, 37° C., 24 hours
Experimental: as §1

C. albicans = conditions: RPMI1640 broth, 35° C., 48 hours, visual reading; expressed as a range value
interleukin 6 (IL-6) = conditions: RAW264.7 cells, compound 8 μg/mL 1 hour, then LPS 1 μg/mL 24 hours; relative to LPS without compound
Experimental: The anti-inflammatory effects of the compounds of the present invention were evaluated using RAW264.7 cells which were stimulated to secrete interleukin 6 (IL-6). Specifically, RAW264.7 cells (obtained from Korean Cell Line Bank), mouse macrophages, were inoculated into a 12-well plate at 5×10^5 cells/well and incubated at 37° C. for 16 to 24 hours. The compounds of the present invention were added to the cell culture medium containing RAW264.7 cells incubated as above at a final concentration of 0 or 8 μg/ ? , and then incubated at 37° C. for 1 hour. Next, lipopolysaccharide (LPS, Sigma-Aldrich, USA) was further added to the medium at a final concentration of 1 μg/ ? , and the medium was incubated at 37° C. for 24 hours to induce IL-6 expression. Thereafter, IL-6 levels produced by the RAW264.7 cells were measured using an ELISA kit (Komabiotech Inc. Korea) according to the manufacturer's instructions. In Table 9, IL6 levels were expressed as a relative percentage (%) between LPS-induced IL6 levels after the treatment with the compound of the present invention and LPS-induced IL6 levels without the treatment of the compound of the present invention.

C. neoformans [4] = conditions: 35° C., 72 hours; n = 10
Experimental: (§2) Fungal cells were spread on YPD solid media (Sigma-Aldrich) and then aliquoted into the wells of the 96-well plates (2.5×10^3 microconidia/ ? for T. rubrum and T. mentagrophytes species or was 2.5×10^3 cfu/ ? for Candida albicans, Candida glabrata and Cryptococcus neoformans species, 195 ? /well). […] The compound-treated fungal cells were incubated in a 35° C. incubator for 48 hours (Candida species) and for 72 hours (C. neoformans and Trichophyton species), respectively.

A. fumigatus [5] = test system: A. fumigatus
Experimental: as §2

[6] = test system: C. albicans 12-99 (Mutant); conditions: 35° C., 48 hours
Experimental: as §2

T. rubrum (KCCM60450) = conditions: 35° C., 72 hours
Experimental: as §2

[7] = test system: T. mentagrophytes (KCCM60449); conditions: 35° C., 72 hours
Experimental: as §2

C. glabrata [8] = conditions: 35° C., 48 hours; n = 30
Experimental: as §2

C. tropicalis = conditions: 35° C., 48 hours
Experimental: as §2

T. rubrum (KCCM60443) = conditions: 35° C., 72 hours
Experimental: as §2

[9] = test system: C. albicans ATCC90028 (WT); conditions: 35° C., 48 hours; n = 30
Experimental: as §2

T. rubrum = conditions: 0.5- to 16-fold MIC, 0 to 120 hours; versus Efinaconazole, Amorolfine, Terbinafine, Ciclopirox, Amphotericin B
Experimental: Specifically, T. rubrum cells (6×10^3 cfu/ ? ) were prepared and aliquoted at 195 ? /well into 96-well plates.

Candida albicans biofilm = conditions: 4, 8, 16 and 32 μg/mL, 24 hours after treatment; versus Caspofungin, Amphotericin B, Efinaconazole
Candida albicans = conditions: 50 or 100 μg/mL for 30 minutes; versus Efinaconazole, Tavaborole, Terbinafine, Ciclopirox
Experimental: To evaluate fast-acting effects of Compound 74, the growth of Candida albicans was studied by treating Candida albicans with Compound 74 or commercially available drug of Efinaconazole, Tavaborole, Terbinafine, or Ciclopirox at the same concentration for the same period of time. Specifically, Candida albicans were prepared at a concentration of 2.5×10^3 cfu/ ? and aliquoted at 195 ? /well into 96-well plates. Subsequently, Candida albicans cells in 96-well plate were treated with Compound 74 or each of the commercially available comparative drugs (50 μg/ ? or 100 μg/ ? ) for 30 minutes, respectively. Next, Compound 74 treated fungal cells were seeded on YPD media (Sigma-Aldrich), and the number of single colonies grown was counted.

SMILES	MIC (μg/mL) A. fumigatus (A. fumigatus [1])	MIC (μg/mL) C. glabrata (C. glabrata [2])	MIC MRSA (MRSA)	MIC S. epidermidis (+) (S. epidermidis (+))	MIC S. aureus (+) (S. aureus (+))	MIC (μg/mL) C. neoformans (C. neoformans [3])	MIC E. coli (−) (E. coli (−))	MIC B. subtilis (+) (B. subtilis (+))	MIC S. aureus enterica (−) (S. aureus enterica (−))	MIC B. cereus (+) (B. cereus (+))	MIC M. luteus (+) (M. luteus (+))	MIC L. monocytogenes (+) (L. monocytogenes (+))	MIC B. coagulans (+) (B. coagulans (+))	MIC P. acnes (+) (P. acnes (+))	MIC (μg/mL) C. albicans (C. albicans)	Relative IL-6 levels (%) (interleukin 6 (IL-6))	further results
CCC(N)C(=O)NCCc1ccc(-c2ccc(C(F)(F)F)cc2)cc1.Cl (racemic) [Compound 76, (R)/(S)-2-amino-N-(2-(4′-(trifluoromethyl)-[1,1′-biphenyl]-4-yl)ethyl)butanamide hydrochloride]	8~32 μg/mL	8~32 μg/mL	32 µg/mL	16 µg/mL	32 µg/mL	8~32 μg/mL	16 µg/mL	16 µg/mL	32 µg/mL	64 µg/mL	16 µg/mL	16 µg/mL	<4 µg/mL	16 µg/mL	16~64 μg/mL	9.58%	–
CCCCC(N)C(=O)NCc1ccc(-c2ccc(OC(F)(F)F)cc2)cc1.Cl (racemic) [Compound 50, (R)/(S)-2-amino-N-((4′-(trifluoromethoxy)-[1,1′-biphenyl]-4-yl)methyl)hexanamide hydrochloride]	4~16 μg/mL	4~16 μg/mL	–	–	–	4~16 μg/mL	–	–	–	–	–	–	–	–	4~16 μg/mL	68%	–
CCCC(N)C(=O)NCCc1ccc(-c2ccc(Cl)c(Cl)c2)cc1.Cl (racemic) [Compound 74, (R)/(S)-2-amino-N-(2-(3′,4′-dichloro-[1,1′-biphenyl]-4-yl)ethyl)pentanamide hydrochloride]	0.5~4 μg/mL	0.5~4 μg/mL	8 µg/mL	8 µg/mL	8 µg/mL	0.5~4 μg/mL	32 µg/mL	8 µg/mL	>32 µg/mL	16 µg/mL	8 µg/mL	8 µg/mL	2 µg/mL	8 µg/mL	0.5~4 μg/mL	–	MIC C. neoformans (C. neoformans [4]): 2~4 μg/mL; MIC A. fumigatus (A. fumigatus [5]): 2~8 μg/mL; MIC C. albicans 12-99 (Mutant) [6]: 2~8 μg/mL; MIC T. rubrum (KCCM60450) (T. rubrum (KCCM60450)): 2~4 μg/mL; MIC T. mentagrophytes (KCCM60449) [7]: 2~8 μg/mL; MIC C. glabrata (C. glabrata [8]): 2~4 μg/mL; MIC C. tropicalis (C. tropicalis): 2~4 μg/mL; MIC T. rubrum (KCCM60443) (T. rubrum (KCCM60443)): 1~4 μg/mL; MIC C. albicans ATCC90028 (WT) [9]: 2~4 μg/mL; fungicidal effects (number of single colonies grown, FIG. 2) (T. rubrum): exhibited fungicidal effects at the MIC concentration; biofilm disruption (growth of Candida albicans, FIG. 3) (Candida albicans biofilm): remarkably excellent growth inhibitory effects on Candida albicans through biofilm disruption; fast-acting effects (number of single colonies grown, FIG. 1) (Candida albicans): excellent fast-acting effects
